Laboratory results reported in the NIST ThermoML archive (doi:10.1016/j.jct.2013.05.019).

Test: xn = mol fraction of the nth substance listed
Details: 101 kPa, Liquid; for viscosity: Falling or rolling sphere viscometry; for mass density: Vibrating tube method; for electrical conductivity: Alternating current cell with electrodes

CCCC[NH3+].O=[N+]([O-])[O-] [n-butylammonium nitrate] + O
Details | electrical conductivity [S/m] | mass density [kg/m3] | viscosity [mPa·s]
293.15 K, x1 = 0.1 | – | 1059.97 | 2.468
293.15 K, x1 = 0.2001 | – | 1081.27 | 4.454
293.15 K, x1 = 0.3009 | – | 1090.62 | 7.217
293.15 K, x1 = 0.4004 | – | 1095.83 | 11.69
293.15 K, x1 = 0.5011 | – | 1099.15 | 17.61
293.15 K, x1 = 0.6505 | – | 1102.02 | 31.21
293.15 K, x1 = 0.7869 | – | 1103.62 | 51.54
293.15 K, x1 = 0.9022 | – | 1104.42 | 78.32
293.15 K, x1 = 1 | – | 1104.68 | 111.35
298.15 K, x1 = 0.001 | 0.583 | – | –
298.15 K, x1 = 0.002 | 0.997 | – | –
298.15 K, x1 = 0.004 | 1.55 | – | –
298.15 K, x1 = 0.005 | 1.73 | – | –
298.15 K, x1 = 0.006 | 1.89 | – | –
298.15 K, x1 = 0.0081 | 2.18 | – | –
298.15 K, x1 = 0.02 | 2.95 | – | –
298.15 K, x1 = 0.03 | 3.19 | – | –
298.15 K, x1 = 0.05 | 3.4 | – | –
298.15 K, x1 = 0.0609 | 3.46 | – | –
298.15 K, x1 = 0.1 | 3.42 | 1056.89 | 2.221
298.15 K, x1 = 0.1999 | 3.31 | – | –
298.15 K, x1 = 0.2001 | – | 1078.05 | 3.908
298.15 K, x1 = 0.2997 | 2.95 | – | –
298.15 K, x1 = 0.3009 | – | 1087.35 | 6.297
298.15 K, x1 = 0.3999 | 2.52 | – | –
298.15 K, x1 = 0.4004 | – | 1092.56 | 10.08
298.15 K, x1 = 0.4998 | 2.08 | – | –
298.15 K, x1 = 0.5011 | – | 1095.89 | 15.1
298.15 K, x1 = 0.5986 | 1.77 | – | –
298.15 K, x1 = 0.6505 | – | 1098.8 | 26.25
298.15 K, x1 = 0.6979 | 1.45 | – | –
298.15 K, x1 = 0.7869 | – | 1100.42 | 42.46
298.15 K, x1 = 0.799 | 1.23 | – | –
298.15 K, x1 = 0.9001 | 1.01 | – | –
298.15 K, x1 = 0.9022 | – | 1101.25 | 65.05
298.15 K, x1 = 1 | 0.867 | 1101.52 | 89.95
303.15 K, x1 = 0.1 | – | 1053.73 | 1.963
303.15 K, x1 = 0.2001 | – | 1074.8 | 3.459
303.15 K, x1 = 0.3009 | – | 1084.06 | 5.545
303.15 K, x1 = 0.4004 | – | 1089.29 | 8.783
303.15 K, x1 = 0.5011 | – | 1092.64 | 13.08
303.15 K, x1 = 0.6505 | – | 1095.58 | 22.35
303.15 K, x1 = 0.7869 | – | 1097.24 | 35.45
303.15 K, x1 = 0.9022 | – | 1098.1 | 53.53
303.15 K, x1 = 1 | – | 1098.38 | 73.04
308.15 K, x1 = 0.1 | – | 1050.52 | 1.754
308.15 K, x1 = 0.2001 | – | 1071.53 | 3.088
308.15 K, x1 = 0.3009 | – | 1080.78 | 4.924
308.15 K, x1 = 0.4004 | – | 1086.02 | 7.715
308.15 K, x1 = 0.5011 | – | 1089.4 | 11.42
308.15 K, x1 = 0.6505 | – | 1092.38 | 19.25
308.15 K, x1 = 0.7869 | – | 1094.08 | 29.98
308.15 K, x1 = 0.9022 | – | 1094.97 | 44.59
308.15 K, x1 = 1 | – | 1095.26 | 60.25
313.15 K, x1 = 0.1 | – | 1047.4 | 1.579
313.15 K, x1 = 0.2001 | – | 1068.24 | 2.774
313.15 K, x1 = 0.3009 | – | 1077.49 | 4.401
313.15 K, x1 = 0.4004 | – | 1082.76 | 6.823
313.15 K, x1 = 0.5011 | – | 1086.16 | 10.04
313.15 K, x1 = 0.6505 | – | 1089.2 | 16.75
313.15 K, x1 = 0.7869 | – | 1090.94 | 25.8
313.15 K, x1 = 0.9022 | – | 1091.86 | 37.54
313.15 K, x1 = 1 | – | 1092.17 | 50.12

CC(=O)O.CCCCN [butylammonium acetate] + O
Details | electrical conductivity [S/m] | mass density [kg/m3] | viscosity [mPa·s]
293.15 K, x1 = 0.031 | – | 1009.89 | 2.659
293.15 K, x1 = 0.06 | – | 1015.91 | 4.018
293.15 K, x1 = 0.0992 | – | 1014.35 | 6.792
293.15 K, x1 = 0.2007 | – | 1003.86 | 16.91
293.15 K, x1 = 0.2999 | – | 993.39 | 35.04
293.15 K, x1 = 0.4013 | – | 984.8 | 53.35
293.15 K, x1 = 0.5004 | – | 977.72 | 101.3
293.15 K, x1 = 0.5666 | – | 974.54 | 141.64
293.15 K, x1 = 0.7973 | – | 964.56 | 390.26
293.15 K, x1 = 0.8972 | – | 962.15 | 579.35
293.15 K, x1 = 1 | – | 959.61 | 771.69
298.15 K, x1 = 0.0006 | 0.168 | – | –
298.15 K, x1 = 0.0012 | 0.316 | – | –
298.15 K, x1 = 0.0018 | 0.434 | – | –
298.15 K, x1 = 0.0026 | 0.572 | – | –
298.15 K, x1 = 0.0032 | 0.67 | – | –
298.15 K, x1 = 0.0046 | 0.842 | – | –
298.15 K, x1 = 0.0078 | 1.12 | – | –
298.15 K, x1 = 0.0121 | 1.34 | – | –
298.15 K, x1 = 0.0181 | 1.45 | – | –
298.15 K, x1 = 0.031 | – | 1006.58 | 2.328
298.15 K, x1 = 0.0329 | 1.54 | – | –
298.15 K, x1 = 0.06 | – | 1013.18 | 3.345
298.15 K, x1 = 0.0682 | 1.58 | – | –
298.15 K, x1 = 0.0992 | – | 1011.15 | 5.626
298.15 K, x1 = 0.0999 | 1.54 | – | –
298.15 K, x1 = 0.2001 | 1.16 | – | –
298.15 K, x1 = 0.2007 | – | 1000.82 | 13.83
298.15 K, x1 = 0.2999 | – | 990.34 | 28.14
298.15 K, x1 = 0.3479 | 0.513 | – | –
298.15 K, x1 = 0.4013 | – | 981.74 | 46.77
298.15 K, x1 = 0.5004 | – | 974.67 | 77.42
298.15 K, x1 = 0.5427 | 0.164 | – | –
298.15 K, x1 = 0.5666 | – | 971.45 | 102.65
298.15 K, x1 = 0.7973 | – | 961.46 | 283.43
298.15 K, x1 = 0.8065 | 0.074 | – | –
298.15 K, x1 = 0.8972 | – | 958.98 | 415.18
298.15 K, x1 = 1 | 0.021 | 956.44 | 546.35
303.15 K, x1 = 0.031 | – | 1003.24 | 2.196
303.15 K, x1 = 0.06 | – | 1009.87 | 2.864
303.15 K, x1 = 0.0992 | – | 1007.91 | 4.714
303.15 K, x1 = 0.2007 | – | 997.74 | 11.79
303.15 K, x1 = 0.2999 | – | 987.26 | 22.91
303.15 K, x1 = 0.4013 | – | 978.64 | 40.9
303.15 K, x1 = 0.5004 | – | 971.64 | 60.97
303.15 K, x1 = 0.5666 | – | 968.34 | 82.19
303.15 K, x1 = 0.7973 | – | 958.36 | 211.13
303.15 K, x1 = 0.8972 | – | 955.83 | 304.3
303.15 K, x1 = 1 | – | 953.33 | 397.17
308.15 K, x1 = 0.031 | – | 999.87 | 1.864
308.15 K, x1 = 0.06 | – | 1006.52 | 2.439
308.15 K, x1 = 0.0992 | – | 1004.62 | 3.985
308.15 K, x1 = 0.2007 | – | 994.62 | 9.893
308.15 K, x1 = 0.2999 | – | 984.17 | 18.78
308.15 K, x1 = 0.4013 | – | 975.55 | 35.59
308.15 K, x1 = 0.5004 | – | 968.58 | 48.93
308.15 K, x1 = 0.5666 | – | 965.22 | 65.48
308.15 K, x1 = 0.7973 | – | 955.23 | 160.94
308.15 K, x1 = 0.8972 | – | 952.69 | 227.72
308.15 K, x1 = 1 | – | 950.15 | 294.59
313.15 K, x1 = 0.031 | – | 996.47 | 1.665
313.15 K, x1 = 0.06 | – | 1003.14 | 2.132
313.15 K, x1 = 0.0992 | – | 1001.29 | 3.489
313.15 K, x1 = 0.2007 | – | 991.43 | 8.389
313.15 K, x1 = 0.2999 | – | 981.07 | 15.67
313.15 K, x1 = 0.4013 | – | 972.44 | 31
313.15 K, x1 = 0.5004 | – | 965.54 | 42.95
313.15 K, x1 = 0.5666 | – | 962.11 | 56.12
313.15 K, x1 = 0.7973 | – | 952.09 | 133.31
313.15 K, x1 = 0.8972 | – | 949.53 | 180.6
313.15 K, x1 = 1 | – | 946.98 | 222.24
